From patent publication US6107273A, “Tumor necrosis factor inhibitors” (Thomas Jefferson University, priority 1995, dated 2000)
Where “and” joins values, the source holds several entries; their conditions need not be identical. Equal values may be shown once. Square brackets hold non-standard residues; d marks the D form. Ends that are not written are not given here. Pen = CC(C)(S)[C@H](N)C(=O)O; Aib = CC(C)(N)C(=O)O

Test system: WEHI 164 cells
Assay: In vitro cytotoxicity assay: protection of WEHI 164 cells from TNF-α cytotoxicity (AlamarBlue)
Assay type: cell-based, mouse
Method: In vitro cytotoxicity assay Cell line
The murine fibrosarcoma cell line L929 is widely used for testing TNF-α cytotoxicity in vitro. In addition, other cell lines are available that are more sensitive, such as the WEHI 164, a mouse myosarcoma cell line. Both cell lines were initially screened for use in the following experiments and WEHI 164 cells were chosen for their higher sensitivity.
Cells are maintained in serum free medium Ultraculture (Biowhittaker) with the addition of 2 mM Glutamine. The assay is carried out in the same serum free medium.
In the cytotoxicity assay, a susceptible cell line (WEHI 164) is incubated in medium containing serial dilutions of TNF-α for a set time and the consequent cytotoxic activity, manifested as inhibition of cell growth and/or cell death, is evaluated by spectrophotometer measurements of vital dye uptake.
Peptide stock solutions are made in HBSS at the concentration of 1 mg/ml, sterilized by passage through a 0.20 μm×13 mm cellulose acetate filters (Corning). The solutions were used for no longer than 10 days. All the other dilutions needed for the test were prepared just before the assay in sterile manner using the medium Ultraculture.
WEHI 164 cells are taken from logarithmic growth and seeded in 96 well microtiter plates at the density of 2500 cells/well. The assay is performed 48 hours later, at a cell density of approximately 3000 cells/well. Cells are pre-incubated with serial dilutions of peptides for 30 minutes, then TNF-α is added to the wells and incubated for 16 hours at 37° C. Samples are repeated in triplicate.
Control wells for non treated cells contain medium only. A concentration curve of TNF-α is performed for every assay at concentrations ranging between 200 and 1 ng/ml. A control for full protection from TNF-α cytotoxicity is carried out by pre-incubating TNF-α with A2 antibody (Centocor, Malvern Pa.) for 30 minutes then adding it to the cells.
After 16 hour incubation, the vital dye AlamarBlue (Alamar Biosciences) is added in the amount equal to 10% final volume. The plates are returned to the incubator for 6-10 hours.
Absorbance is evaluated at 570 nm, subtracting the background absorbance measured at 595 nm in a BioRad microtiter plate reader.
Values are expressed as a percentage of cell survival, where the control samples (containing medium only) are referred to as 100%.

[1] = 50 μg/ml peptide, TNF 25 ng/ml, 16 h
[2] = 100 μg/ml peptide, TNF 25 ng/ml, 16 h
[3] = 50 μg/ml peptide, TNF 25 pg/ml, 16 h
[4] = 100 μg/ml peptide, TNF 25 pg/ml, 16 h
[5] = 25 μg/ml peptide, TNF 25 ng/ml, 16 h
[6] = 2.5 μg/ml peptide, TNF 5 ng/ml, 16 h
[7] = 25 μg/ml peptide, TNF 5 ng/ml, 16 h

| Substance | % cell survival [1] | % cell survival [3] | % cell survival [4] | further results |
| --- | --- | --- | --- | --- |
| CRIAVSYQTKVC (cysteine pairing not given here) [Peptide 557] | 70 ± 3% | – | – | % cell survival [2]: 65 ± 4% |
| Pen-Thr-Pro-Glu-Gly-Ala-Glu-Ala-Pen ([Pen]TPEGAEA[Pen]; cysteine pairing not given here) [Peptide 562] | – | 25.2 ± 7% | 33.1 ± 7% | – |
| CIAVSYQTKC (cysteine pairing not given here) [Peptide 558] | 24 ± 8% | – | – | % cell survival [2]: 26 ± 7% |
| [Pen]E[Aib]E[Pen] (cysteine pairing not given here) [Peptide 556] | 71 ± 14% | – | – | % cell survival [5]: 69 ± 18% |
| CSYQTKC (cysteine pairing not given here) [Peptide 522] | – | – | – | % cell survival [6]: 81%; % cell survival [7]: 111% |
| CRRANA[dC] (cysteine pairing not given here) [Peptide 512] | – | 70.8 ± 6% | 65.6 ± 8% | – |
| CARDNQAC (cysteine pairing not given here) [Peptide 509] | – | – | – | % cell survival (2.5 μg/ml peptide, TNF 25 ng/ml, 16 h): 21 ± 5%; % cell survival [5]: 28.4% |
| CPETPEGAEAKPC (cysteine pairing not given here) [Peptide 506] | – | – | – | % cell survival [6]: 68%; % cell survival [7]: 88.1% |
| CPRETPEGAEAKPC (cysteine pairing not given here) [Peptide 505] | – | – | – | % cell survival (100 μg/ml peptide, 30 min pre-incubation, then TNF-α 16 h, TNF concentration not printed (table 1)): 62.7 ± 4% and 32.5 ± 3% |
| CEGAEC (cysteine pairing not given here) [Peptide 561] | 92 ± 20% | – | – | % cell survival [2]: 90 ± 10% |
| CPQAEGQLC (cysteine pairing not given here) [Peptide 510] | – | 59.3 ± 1% | 60.4 ± 3% | – |
| CSYQTKVC (cysteine pairing not given here) [Peptide 521] | – | 56.51 ± 3% | 65.26 ± 4% | – |
